Results on five molecules are retold here after patent publication EP1403247A1, “N-Alkanoylphenylalanine derivatives” (F.HOFFMANN-LA ROCHE AG, priority 1997, dated 1999).

The term pIC50 denotes −log10 of the IC50, conventionally taken in molar units.

pIC50: −log10 of the molar value.

Assay [1] addresses T1, VLA-4 (a4b1 integrin) (Homo sapiens, UniProt P05556+P13612).
T1 construct: followed by 10 µl of Ramos cell-derived VLA-4; endogenous in cells; host or cells: Ramos cells (VLA-4 derived from them; method of extraction or purification not described)
Nature of the assay: VLA-4 / VCAM-1 Screening Assay (solid-phase, dual antibody ELISA). As to conditions: Ramos cell-derived VLA-4 binding to immobilized recombinant human VCAM-1; 1 mM MnCl2, 2 hr at 37 °C. How it is done:
VLA-4 / VCAM-1 Screening Assay
VLA-4 antagonist activity, defined as ability to compete for binding to immobilized VCAM-1, was quantitated using a solid-phase, dual antibody ELISA. VLA-4 (a4b1 integrin) bound to VCAM-1 is detected by a complex of anti-integrin b1 antibody: HRP-conjugated anti-mouse IgG: chromogenic substrate (K-Blue). Initially, this entailed coating 96 well plates (Nunc Maxisorp) with recombinant human VCAM-1 (0.4 µg in 100 µl PBS), sealing each plate and then allowing the plates to stand at 4°C for ^~18 hr. […] On the day of assay, all plates are washed twice with VCAM Assay Buffer (200 µl/well of 50 mM Tris-HCl, 100 mM NaCl, 1 mM MnCl2, 0.05% Tween 20; pH 7.4). Test compounds are dissolved in 100% DMSO and then diluted 1:20 in VCAM Assay Buffer supplemented with 1mg/mL BSA (i.e., final DMSO = 5%). […] 100 µl per well of each dilution is added to the VCAM-coated plates, followed by 10 µl of Ramos cell-derived VLA-4. These plates are sequentially mixed on a platform shaker for 1 min, incubated for 2 hr at 37 °C, and then washed four times with 200 µl/well VCAM Assay Buffer. 100 µl of mouse anti-human integrin b1 antibody is added to each well (0.6 µg/mL in VCAM Assay Buffer + 1mg/mL BSA) and allowed to incubate for 1 hr at 37°C. At the conclusion of this incubation period, all plates are washed four times with VCAM Assay Buffer (200 µl/well). A corresponding second antibody, HRP-conjugated goat anti-mouse IgG (100 µl per well @ 1:800 dilution in VCAM Assay Buffer + 1mg/mL BSA), is then added to each well, followed by a 1 hr incubation at room temperature and concluded by three washes (200µl/well) with VCAM Assay Buffer. Color development is initiated by addition of 100 µl K-Blue per well (15 min incubation, room temp) and terminated by addition of 100 µl Red Stop Buffer per well. […] Results are calculated as % inhibition of total binding (i.e., VLA-4 + VCAM-1 in the absence of test compound).
(In an ELISA, binding on a coated surface is turned into a signal by an enzyme label.)

The target of assay [2] is T1, VLA-4 (a4b1 integrin). Put plainly: Ramos (VLA-4) / VCAM-1 Cell-Based Screening Assay (Ramos-VCAM-1 cell adhesion assay). As to conditions: Calcein-AM labeled Ramos cells adhering to immobilized recombinant human VCAM-1; 45 min at room temperature. An excerpt: Ramos (VLA-4) / VCAM-1 Cell-Based Screening Assay Protocol
Calcein-AM was purchased from Molecular Probes Inc.
VLA-4 (a4b1 integrin) antagonist activity, defined as ability to compete with cell-surface VLA-4 for binding to immobilized VCAM-1, was quantitated using a Ramos-VCAM-1 cell adhesion assay. Ramos cells bearing cell-surface VLA-4, were labeled with a fluorescent dye (Calcein-AM) and allowed to bind VCAM-1 in the presence or absence of test compounds.
Initially, this entailed coating 96 well plates (Nunc Maxisorp) with recombinant human VCAM-1 (100 ng in 100 µl PBS), sealing each plate and allowing the plates to stand at 4°C for ~18 hr. The VCAM-coated plates were subsequently washed twice with 0.05% Tween-20 in PBS, and then blocked for 1hr (room temperature) with 200 µl of Blocking Buffer (1% BSA/0.02% thimerosal) to reduce non-specific binding. Following the incubation with Blocking Buffer, plates were inverted, blotted and the remaining buffer aspirated. Each plate was then washed with 300 µl PBS, inverted and the remaining PBS aspirated.
Test compounds were dissolved in 100% DMSO and then diluted 1:25 in VCAM Cell Adhesion Assay Buffer (4 mM CaCl2, 4 mM MgCl2 in 50 mM TRIS-HCl, pH 7.5) (final DMSO = 4%). […] 100 µl/well of each dilution was added to the VCAM-coated plates, followed by 100 µl of Ramos cells (200,000 cells/well in 1% BSA/PBS). […] Plates were inverted to remove non-adherent cells, blotted and 300 µl/well PBS added. Plates were again inverted, blotted and the remaining buffer gently aspirated. 100 µl Lysis Buffer (0.1% SDS in 50 mM TRIS-HCl, pH 8.5) was added to each well and agitated for 2 min on a rotary shaking platform.

T1 sequence (P13612 34-1032): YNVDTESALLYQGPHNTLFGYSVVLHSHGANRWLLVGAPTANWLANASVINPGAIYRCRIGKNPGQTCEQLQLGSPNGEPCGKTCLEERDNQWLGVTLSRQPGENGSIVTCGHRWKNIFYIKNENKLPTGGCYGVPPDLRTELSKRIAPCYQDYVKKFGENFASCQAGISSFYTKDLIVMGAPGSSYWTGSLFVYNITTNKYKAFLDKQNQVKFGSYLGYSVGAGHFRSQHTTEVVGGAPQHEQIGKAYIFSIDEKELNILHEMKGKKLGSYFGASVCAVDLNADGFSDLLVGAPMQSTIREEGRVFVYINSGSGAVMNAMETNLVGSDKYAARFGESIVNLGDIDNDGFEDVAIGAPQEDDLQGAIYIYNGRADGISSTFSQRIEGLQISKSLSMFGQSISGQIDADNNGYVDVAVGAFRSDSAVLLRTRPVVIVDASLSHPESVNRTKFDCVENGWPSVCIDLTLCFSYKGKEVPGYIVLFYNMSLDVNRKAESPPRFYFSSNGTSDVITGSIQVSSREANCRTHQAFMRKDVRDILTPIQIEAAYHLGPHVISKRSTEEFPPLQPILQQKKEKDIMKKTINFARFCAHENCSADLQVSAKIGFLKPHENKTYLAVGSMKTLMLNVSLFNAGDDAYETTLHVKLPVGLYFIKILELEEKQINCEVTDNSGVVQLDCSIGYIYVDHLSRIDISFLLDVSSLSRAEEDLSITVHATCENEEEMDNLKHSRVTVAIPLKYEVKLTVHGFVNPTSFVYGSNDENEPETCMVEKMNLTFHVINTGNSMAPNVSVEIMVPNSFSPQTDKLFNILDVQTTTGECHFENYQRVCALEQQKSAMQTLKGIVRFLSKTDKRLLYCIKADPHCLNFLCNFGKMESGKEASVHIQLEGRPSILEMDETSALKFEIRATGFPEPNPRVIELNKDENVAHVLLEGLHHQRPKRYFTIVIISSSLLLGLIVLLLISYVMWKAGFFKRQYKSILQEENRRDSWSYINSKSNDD
T1 sequence (P05556 21-798): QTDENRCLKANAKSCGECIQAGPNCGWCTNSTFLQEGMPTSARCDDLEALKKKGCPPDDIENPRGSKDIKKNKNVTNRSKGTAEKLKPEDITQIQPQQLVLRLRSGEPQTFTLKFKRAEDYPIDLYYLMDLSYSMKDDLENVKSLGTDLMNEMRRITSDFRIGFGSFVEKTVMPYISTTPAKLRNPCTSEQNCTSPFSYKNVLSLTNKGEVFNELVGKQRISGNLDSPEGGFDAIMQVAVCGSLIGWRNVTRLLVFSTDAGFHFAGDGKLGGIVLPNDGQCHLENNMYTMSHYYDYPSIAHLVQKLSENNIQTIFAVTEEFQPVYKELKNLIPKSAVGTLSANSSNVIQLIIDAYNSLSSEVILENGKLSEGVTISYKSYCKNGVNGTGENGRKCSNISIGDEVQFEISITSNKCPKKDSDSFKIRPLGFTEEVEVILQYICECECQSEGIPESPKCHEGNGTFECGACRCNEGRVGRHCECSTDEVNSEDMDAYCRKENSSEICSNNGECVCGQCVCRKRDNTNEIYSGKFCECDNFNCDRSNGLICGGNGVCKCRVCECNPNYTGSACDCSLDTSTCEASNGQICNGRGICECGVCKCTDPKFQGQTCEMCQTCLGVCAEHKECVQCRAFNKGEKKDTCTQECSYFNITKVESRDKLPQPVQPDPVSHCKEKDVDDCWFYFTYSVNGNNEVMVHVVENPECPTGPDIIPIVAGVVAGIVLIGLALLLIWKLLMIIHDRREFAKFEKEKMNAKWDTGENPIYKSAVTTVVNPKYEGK

Turning to `Cc1cc(CC(NC(=O)c2c(C)cccc2Cl)C(=O)O)ccc1NC(=O)CCc1cccc(O)c1` (stereo not drawn) [Example 120], the negative-log IC50 (pIC50) is 8.35 on VLA-4 (a4b1 integrin) [1] and 6.36 at VLA-4 (a4b1 integrin) [2]. Regarding `O=C(NC(Cc1ccc(NC(=O)c2c(Cl)cccc2Cl)cc1)C(=O)O)c1ccccc1Cc1ccccc1` [Example 31, 4-[[(2,6-dichlorophenyl)carbonyl]amino]-N-[[(2-phenylmethyl)phenyl]carbonyl]-L-phenylalanine], the pIC50 on VLA-4 (a4b1 integrin) [1] is 9.29.

`Cc1cc(CC(NC(=O)c2c(C)cccc2Cl)C(=O)O)ccc1NC(=O)Cc1cccc(O)c1` (stereo not drawn) [Example 121]: the pIC50 on VLA-4 (a4b1 integrin) [1] was 8.24; at VLA-4 (a4b1 integrin) [2], 6.29.

With `Cc1cc(CC(NC(=O)c2c(C)cccc2Cl)C(=O)O)ccc1NC(=O)c1c(Cl)cccc1Cl` (stereo not drawn) [Example 123], the pIC50 at VLA-4 (a4b1 integrin) [1] was 8.77; at VLA-4 (a4b1 integrin) [2], 6.50. For `COc1ccc(Br)c(C(=O)NC(Cc2ccc(NC(=O)c3c(C)ccnc3C)cc2)C(=O)O)c1` (stereo not drawn) [Example 108] the same measures were 9.20 and 7.66.
